{
  "source": "paper PMC7377239",
  "about": "“Cardiovascular Effects of Polychlorinated Biphenyls and Their Major Metabolites” (Environmental Health Perspectives, 2020)",
  "tested_on": "iCell cardiomyocytes (human iPSC-derived cardiomyocytes)",
  "assay": "Intracellular Ca2+ flux / beating parameters in iCell cardiomyocytes (FLIPR tetra), 90 min or 24 h",
  "assay_type": "cell-based",
  "settings": "Homo sapiens, Cardiomyocyte, 0.00 µM = 100.00; for activity at 0.1 µM: 0.10 µM",
  "summary_of_the_method": "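Gelatin-plated iCell cardiomyocytes (5,000/well) were dye-loaded for 2 h at 37 °C, then exposed for 90 min or 24 h to PCBs/metabolites (5× plates at 0.05–500 µM; 0.5% DMSO final) in triplicate. Ca2+ flux was read for 100 s at 8 Hz and 37 °C. Peak height, frequency, spacing CV and decay/rise ratio were vehicle-normalized and fitted with a four-parameter logistic model, with POD set at 1 SD of vehicle.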",
  "key": {"[1]": {"settings": "1.5 h, 90min, read-out: cm.amp.avg.90min"}, "[2]": {"settings": "1.5 h, 90min, read-out: cm.amp.cv.90min"}, "[3]": {"settings": "1.5 h, 90min, read-out: cm.bpm.90min"}, "[4]": {"settings": "1.5 h, 90min, read-out: cm.decay.rise.90min"}, "[5]": {"settings": "1.5 h, 90min, read-out: cm.spacing.cv.90min"}, "[6]": {"settings": "24 h, 24hrs, read-out: cm.amp.avg.24hrs"}, "[7]": {"settings": "24 h, 24hrs, read-out: cm.amp.cv.24hrs"}, "[8]": {"settings": "24 h, 24hrs, read-out: cm.bpm.24hrs"}, "[9]": {"settings": "24 h, 24hrs, read-out: cm.decay.rise.24hrs"}, "[10]": {"settings": "24 h, 24hrs, read-out: cm.spacing.cv.24hrs"}},
  "note": "Where two headings read alike, the source gives them in different places.",
  "data": [
    {"smiles": "Clc1cc(Cl)c(-c2cc(Cl)c(Cl)cc2Cl)cc1Cl", "note": "[PCB153]", "values": [
      {"measurement": "activity at 0.01 µM", "setting": "[1]", "result": 105, "unit": "%"},
      {"measurement": "activity at 0.01 µM", "setting": "[2]", "result": 113, "unit": "%"},
      {"measurement": "activity at 0.01 µM", "setting": "[3]", "result": 107, "unit": "%"},
      {"measurement": "activity at 0.01 µM", "setting": "[4]", "result": 97.7, "unit": "%"},
      {"measurement": "activity at 0.01 µM", "setting": "[5]", "result": 119, "unit": "%"},
      {"measurement": "activity at 0.1 µM", "setting": "[1]", "result": 107, "unit": "%"},
      {"measurement": "activity at 0.1 µM", "setting": "[2]", "result": 98.7, "unit": "%"},
      {"measurement": "activity at 0.1 µM", "setting": "[3]", "result": 97.8, "unit": "%"},
      {"measurement": "activity at 0.1 µM", "setting": "[4]", "result": 100, "unit": "%"},
      {"measurement": "activity at 0.1 µM", "setting": "[5]", "result": 102, "unit": "%"},
      {"measurement": "activity at 1 µM", "setting": "[1]", "result": 108, "unit": "%"},
      {"measurement": "activity at 1 µM", "setting": "[2]", "result": 121, "unit": "%"},
      {"measurement": "activity at 1 µM", "setting": "[3]", "result": 103, "unit": "%"},
      {"measurement": "activity at 1 µM", "setting": "[4]", "result": 92.5, "unit": "%"},
      {"measurement": "activity at 1 µM", "setting": "[5]", "result": 108, "unit": "%"},
      {"measurement": "activity at 10 µM", "setting": "[1]", "result": 93.7, "unit": "%"},
      {"measurement": "activity at 10 µM", "setting": "[2]", "result": 126, "unit": "%"},
      {"measurement": "activity at 10 µM", "setting": "[3]", "result": 120, "unit": "%"},
      {"measurement": "activity at 10 µM", "setting": "[4]", "result": 92.4, "unit": "%"},
      {"measurement": "activity at 10 µM", "setting": "[5]", "result": 119, "unit": "%"},
      {"measurement": "activity at 100 µM", "setting": "[1]", "result": 0, "unit": "%"},
      {"measurement": "activity at 100 µM", "setting": "[2]", "result": 0, "unit": "%"},
      {"measurement": "activity at 100 µM", "setting": "[3]", "result": 0, "unit": "%"},
      {"measurement": "activity at 100 µM", "setting": "[4]", "result": 0, "unit": "%"},
      {"measurement": "activity at 100 µM", "setting": "[5]", "result": 0, "unit": "%"},
      {"measurement": "activity at 0.01 µM", "setting": "[6]", "result": 50.2, "unit": "%"},
      {"measurement": "activity at 0.01 µM", "setting": "[7]", "result": 50.5, "unit": "%"},
      {"measurement": "activity at 0.01 µM", "setting": "[8]", "result": 51.5, "unit": "%"},
      {"measurement": "activity at 0.01 µM", "setting": "[9]", "result": 57.7, "unit": "%"},
      {"measurement": "activity at 0.01 µM", "setting": "[10]", "result": 50.2, "unit": "%"},
      {"measurement": "activity at 0.1 µM", "setting": "[6]", "result": 81.6, "unit": "%"},
      {"measurement": "activity at 0.1 µM", "setting": "[7]", "result": 123, "unit": "%"},
      {"measurement": "activity at 0.1 µM", "setting": "[8]", "result": 101, "unit": "%"},
      {"measurement": "activity at 0.1 µM", "setting": "[9]", "result": 92.5, "unit": "%"},
      {"measurement": "activity at 0.1 µM", "setting": "[10]", "result": 108, "unit": "%"},
      {"measurement": "activity at 1 µM", "setting": "[6]", "result": 125, "unit": "%"},
      {"measurement": "activity at 1 µM", "setting": "[7]", "result": 84.9, "unit": "%"},
      {"measurement": "activity at 1 µM", "setting": "[8]", "result": 99.3, "unit": "%"},
      {"measurement": "activity at 1 µM", "setting": "[9]", "result": 102, "unit": "%"},
      {"measurement": "activity at 1 µM", "setting": "[10]", "result": 97.8, "unit": "%"},
      {"measurement": "activity at 10 µM", "setting": "[6]", "result": 122, "unit": "%"},
      {"measurement": "activity at 10 µM", "setting": "[7]", "result": 120, "unit": "%"},
      {"measurement": "activity at 10 µM", "setting": "[8]", "result": 129, "unit": "%"},
      {"measurement": "activity at 10 µM", "setting": "[9]", "result": 93, "unit": "%"},
      {"measurement": "activity at 10 µM", "setting": "[10]", "result": 121, "unit": "%"},
      {"measurement": "activity at 100 µM", "setting": "[6]", "result": 0, "unit": "%"},
      {"measurement": "activity at 100 µM", "setting": "[7]", "result": 0, "unit": "%"},
      {"measurement": "activity at 100 µM", "setting": "[8]", "result": 0, "unit": "%"},
      {"measurement": "activity at 100 µM", "setting": "[9]", "result": 0, "unit": "%"},
      {"measurement": "activity at 100 µM", "setting": "[10]", "result": 0, "unit": "%"}
    ]}
  ]
}
